The source of these data is US5578622A, “Isothiazole derivatives and their uses” (Asamura Patent Office, priority 1994, dated 1996).

Test [1] concerns Tyromyces palustris. Put plainly: Test for wood rotting-preventing effect (mycelium growth inhibition on malt extract agar). It is filed as cell-based. The following applies: 28° C.±2° C., 2 to 10 days, read-out: Rotting preventing effect (mycelium growth-inhibitory rate), TYP. On the procedure: (§1) The following fungi were cultured in agar media, respectively, and mycelial disks on the media were stamped out together with the agar using a cork borer of 4 mm in diameter. The resulting mycelial disks on agar were used as an inoculum. Each test compound of 50 ppm was added to a malt extract agar medium and added in parts to Petri dishes. The above prepared inoculum was put on the Petri dishes and cultured at 28° C.±2° C. Two to ten days after inoculation, the diameter of the mycelial disk of each fungus was measured, and the mycelium growth-inhibitory rate was obtained according to the following equation. [formula] The mycelium growth-inhibitory rate (%) is indicated by the following symbols as a fungicidal effect on each fungus, and the results are shown in Table 2. | TYP: Tyromyces palustris

For test [2], the system named is Trichoderma viride. The test is described as above. The class given is cell-based. The following applies: 28° C.±2° C., 2 to 10 days, read-out: Rotting preventing effect (mycelium growth-inhibitory rate), TRV. On the procedure: as §1, with “TRV: Trichoderma viride” for “TYP: Tyromyces palustris”
In test [3] the test system is Aspergillus niger. The description is as above. The class given is cell-based. The following applies: 28° C.±2° C., 2 to 10 days, read-out: Rotting preventing effect (mycelium growth-inhibitory rate), ASN. On the procedure: as §1, with “ASN: Aspergillus niger” for “TYP: Tyromyces palustris”
Test [4] deals with Rhizopus nigricans. The description is as above. The class given is cell-based. The following applies: Rhizopus stolonifer, 28° C.±2° C., 2 to 10 days, read-out: Rotting preventing effect (mycelium growth-inhibitory rate), RHN. The procedure: as §1, with “RHN: Rhizopus nigricans” for “TYP: Tyromyces palustris”
For test [5], the system named is Gibberella fujikuroi ("Bakanae" disease of rice). In words: Test for rice seed-disinfecting effect. The class given is in vivo. The following applies: Fusarium fujikuroi, 504 h, seed immersion 25° C. 24 hours, three weeks after treatment, read-out: Controlling effect (control of disease), "Bakanae" disease of rice. On the procedure:
2-1 Test for rice seed-disinfecting effect
Unhulled rice infected with Gibberella fujikuroi ("Bakanae" disease of rice) was immersed in a test compound adjusted to 1000 ppm at 25° C. for 24 hours. Water was lightly swished off the seed, which was then sowed and germinated for two days. Three weeks after treatment with the solution containing the compound, the rate of the infected seedlings was examined, and the control of disease was calculated by comparison with that of the untreated plot. The control of disease was shown as a controlling effect on the basis of the following standard.

Test [6] relates to Pseudoperonospora cubensis. In words: Test for controlling effect on downy mildew of cucumber. The following applies: 168 h, 200 ppm spray, one day before inoculation, cucumber 2-leaf stage, read-out: Controlling effect (control of disease), Downy mildew of cucumber. The class given is in vivo. On the procedure:
2-2 Test for controlling effect on downy mildew of cucumber (Pseudoperonospora cubensis) A test compound adjusted to 200 ppm was sprayed onto cucumber at the 2-leaf stage cultivated in pots. After one day, the cucumber was inoculated by spraying the zoospore suspension of Pseudoperonospora cubensis. After inoculation, the cucumber was placed in a 25° C.-humid room for 1 day and then in a greenhouse for 6 days. Thus, the cucumber was made to be infected with downy mildew. The control of disease of the test compound is calculated by comparing the degree of infection of each leaf with that in the untreated plot. The control of disease is shown as a controlling effect in the same manner as in Test Example 2-1.

In test [7] the test system is Rhizoctonia solani. Put plainly: Test for controlling effect on sheath blight of rice. The class given is in vivo. The following applies: 120 h, 200 ppm spray, 24 hours after inoculation, rice 4-leaf stage, five days after inoculation, read-out: Controlling effect (control of disease), Sheath blight of rice. On the procedure: 2-3 Test for controlling effect on sheath blight of rice (Rhizoctonia solani) Rice seedlings at the 4-leaf stage were inoculated with the mycelium of sheath blight of rice (Rhizoctonia solani). After 24 hours, a test medicine solution adjusted to 200 ppm was sprayed onto the seedlings. After air-drying, the seedlings were placed in a humid room for 24 hours where the temperature was kept at 28° C. and humidity was kept at 98%. Thereafter, the seedlings were transferred to a greenhouse, and five days after inoculation, the degree of infected area was examined. The control of disease was calculated by comparison with that in the untreated plot. The control of disease is shown as a controlling effect in the same manner as in Test Example 2-1.

Turning to `CC(C)(C#CI)OCOc1nsc(S(C)(=O)=O)c1C#N` [Compound 103], the inhibition at 50 ppm in test [1] lay within 95 to 100%; in test [2] it was 95 to 100%; in test [3], 95 to 100%; in test [4] it was 80 to 94%. Besides, in test [5], the pest or weed control at 1000 ppm is 95 to 100%. Moreover, the pest or weed control at 200 ppm in test [6] and in test [7] was 95 to 100% in each case.
In the case of `CSc1snc(OCOC(C)(C)C#CI)c1C#N` [Compound 100, 3-(3-iodo-l,l-dimethyl-2-propynyloxymethyloxy)-4-cyano-5-methylthioisothiazole], the inhibition at 50 ppm in test [1] fell in the range of 95 to 100%; in test [2] it was 95 to 100%; in test [3] it was 80 to 94%; in test [4], 80 to 94%. Further, in test [5], the pest or weed control at 1000 ppm lay within 95 to 100%. For the same molecule, the pest or weed control at 200 ppm in test [6] and in test [7] was 95 to 100% in each case.
In the case of `CSc1snc(OCOC(C)C#CI)c1C#N` (centres unmarked) [Compound 110], the inhibition at 50 ppm in test [1], in test [2], in test [3] and in test [4] was 95 to 100% each time. Also, the pest or weed control at 1000 ppm in test [5] is 95 to 100%. The pest or weed control at 200 ppm in test [6] and in test [7] was 95 to 100% throughout.
For the molecule `CC(OCC#CI)Sc1snc(OC(F)F)c1C#N` (centres unmarked) [Compound 127], the inhibition at 50 ppm in test [1], in test [2], in test [3] and in test [4] was 95 to 100% in each case. Further, the pest or weed control at 1000 ppm in test [5] was in the range of 95 to 100%. Also, the pest or weed control at 200 ppm in test [6] and in test [7] was 95 to 100% throughout.
On to `CC(=O)Oc1nsc(SCOCC#CI)c1C#N` [Compound 67], for which the inhibition at 50 ppm in test [1] fell in the range of 95 to 100%; in test [2], 80 to 94%; in test [3] it was 80 to 94%; in test [4] it was 95 to 100%. Also, in test [5], the pest or weed control at 1000 ppm was 80 to 94%. Also, the pest or weed control at 200 ppm in test [6] lay in the range of 80 to 94%; in test [7], 95 to 100%.
As to `N#Cc1c(OCC#CI)nsc1N1CCOCC1` [Compound 35], the inhibition at 50 ppm is 95 to 100% in test [1], 95 to 100% in test [2], 95 to 100% in test [3] and 80 to 94% in test [4]. Also, the pest or weed control at 1000 ppm in test [5] was 80 to 94%. Also, the pest or weed control at 200 ppm in test [6] is 95 to 100%; in test [7], 80 to 94%.
In the case of `CCS(=O)(=O)c1snc(OCOCC#CI)c1C#N` [Compound 94], the inhibition at 50 ppm in test [1], in test [2], in test [3] and in test [4] was 95 to 100% throughout. Also, the pest or weed control at 1000 ppm in test [5] was 95 to 100%. The pest or weed control at 200 ppm in test [6] and in test [7] was 95 to 100% each time.
Regarding `COc1nsc(SCOCC#CI)c1C#N` [Compound 53, 3-methoxy-4-cyano-5-(3-iodo-2-propynyloxymethylthio)isothiazole], the inhibition at 50 ppm in test [1] lay in the range of 95 to 100%; in test [2], 95 to 100%; in test [3] it was 95 to 100%; in test [4], 80 to 94%. The pest or weed control at 1000 ppm in test [5] lay in the range of 95 to 100%. In addition, the pest or weed control at 200 ppm in test [6] and in test [7] was 95 to 100% each time.
`CC(C#CI)OCOc1nsc(N(C)C)c1C#N` (centres unmarked) [Compound 115]: the inhibition at 50 ppm in test [1], in test [2], in test [3] and in test [4] was 95 to 100% each time. Further, the pest or weed control at 1000 ppm in test [5] was 95 to 100%. Further, the pest or weed control at 200 ppm in test [6] lay in the range of 80 to 94%; in test [7], 95 to 100%.
With `COc1nsc(OCCC#CI)c1C#N` [Compound 80, 3-methoxy-4-cyano-5-(4-iodo-3-butynyloxy)isothiazole], the inhibition at 50 ppm in test [1], in test [2], in test [3] and in test [4] was 95 to 100% each time. In test [5], the pest or weed control at 1000 ppm was 95 to 100%. Further, the pest or weed control at 200 ppm in test [6] was 95 to 100%; in test [7], 80 to 94%.
Turning to `COC(=O)Sc1snc(OCC#CI)c1C#N` [Compound 20], the inhibition at 50 ppm in test [1] fell in the range of 95 to 100%; in test [2], 95 to 100%; in test [3], 80 to 94%; in test [4], 60 to 79%. The pest or weed control at 1000 ppm in test [5] lay within 80 to 94%. In addition, the pest or weed control at 200 ppm lay in the range of 95 to 100% in test [6] and 60 to 79% in test [7].
